Data: patent publication US7015177B2, “Solid formulation” (priority 2001, dated 2006)

Experiments:
[1] = Thermal degradation of agrochemical; assay type: physicochemical
[2] = Solubility of agrochemical in solvent or melt; assay type: physicochemical; details: melt at about 65 to 70° C.

CC1(C)[C@H](C(=O)O[C@H](C#N)c2cccc(Oc3ccccc3)c2)[C@@H]1/C=C(\Cl)C(F)(F)F (racemic) [lambda cyhalothrin]
temperature above which it tends to degrade [1]: > 100 °C

CCCCCCCCCCCCCCCCCC(=O)O [stearic acid]
retardation of germination (seeds): no significant retardation of germination

CN1COCN(Cc2cnc(Cl)s2)/C1=N\[N+](=O)[O-] [thiamethoxam]
solubility in melt of polyethylene glycol and methyl oleate [2]: readily soluble
